Results published in patent US9975848B2, “Inhibitors of HIV-1 entry and methods of use thereof” (priority 2014, dated 2018).
“And” between values parts separate entries of the source, which are not always exact repeats. Equal entries are not always repeated. Where two headings read alike, the source gives them in different places.

Tests used:
monomeric YU-2 gp120 = target: T1, monomeric YU-2 gp120 (Human immunodeficiency virus type 1 group M subtype B, UniProt P35961); assay: biochemical; format: binding, HIV-1; conditions: ITC, 25° C., PBS pH 7.4, 2% DMSO
T1 construct: containing monomeric YU-2 gp120 at a concentration of 2 μM
Protocol: Isothermal Titration Calorimetry. Thermodynamic parameters for the binding of the different inhibitors to gp120 were obtained by isothermal titration calorimetry (ITC) using a VP-ITC microcalorimeter from MicroCal/GE Healthcare (Northampton, Mass., USA). The titrations were performed at 25° C. by injecting 10 μL aliquots of inhibitor solution into the calorimetric cell (volume ˜1.4 mL) containing monomeric YU-2 gp120 at a concentration of 2 μM. […] In all titration experiments, gp120 and the different inhibitors were equilibrated with PBS, pH 7.4, with 2% DMSO. The heat evolved upon each injection of inhibitor was obtained by integration of the calorimetric signal. The heat associated with inhibitor binding to gp120 was obtained by subtracting the heat of dilution from the heat of reaction.

AD8 = assay: Infection by single-round luciferase viruses, HIV-1 AD8 envelope; format: cell-based; conditions: Human immunodeficiency virus 1, 48 h, read-out: AD8 (μM)
JR-FL = assay: Infection by single-round luciferase viruses, HIV-1 JR-FL envelope; format: cell-based; conditions: Human immunodeficiency virus 1, 48 h, read-out: JR-FL (μM)
A-MLV = assay: Infection by single-round luciferase viruses, control A-MLV envelope; format: cell-based, amphotropic murine leukemia virus; conditions: Murine leukemia virus, 48 h, read-out: A-MLV (μM)
Protocol: (§1) Compounds: Compounds are dissolved in dimethyl sulfoxide at a stock concentration of 10 mM, aliquoted, and stored at −20° C. Each compound is then diluted to 1 mM in serum-free Dulbecco's modified Eagle medium (DMEM) and used for different assays.
(§2) Cell Lines: 293T human embryonic kidney and Cf2Th canine thymocytes (ATCC) are grown at 37° C. and 5% CO2 in Dulbecco's modified Eagle's medium (Invitrogen) containing 10% fetal bovine serum (Sigma) and 100 μg/mL penicillin-streptomycin (Mediatech, Inc.). Cf2Th cells stably expressing human CCR5 and CD4 are grown in medium supplemented with 0.4 mg/mL G418 and 0.2 mg/mL hygromycin (Invitrogen).
(§3) Recombinant Luciferase Viruses: 293T human embryonic kidney cells were co-transfected with plasmids expressing the pCMVΔP1Δenv HIV-1 Gag-Pol packaging construct, the R5 YU2 envelope glycoproteins, or the envelope glycoprotein of the control amphotropic murine leukemia virus (A-MLV), and the firefly luciferase-expressing vector at a DNA ratio of 1:1:3 μg using the Effectene transfection reagent (Qiagen). Co-transfection produced single-round, replication-defective viruses. The virus-containing supernatants were harvested 36-40 h after transfection, spun, aliquoted, and frozen at −80° C. until further use. The reverse transcriptase (RT) activities of all viruses were measured as described in Rho, H. M., et al. Virology 1981, 112, 355-360.
(§4) Infection by Single-Round Luciferase Viruses. Cf2Th-CCR5-CD4 target cells were seeded at a density of 6×10^3 cells/well in 96-well luminometer-compatible tissue culture plates (PerkinElmer) 24 h before infection. On the day of infection, CD4-mimetic compounds of interest (0-100 μM) were incubated with recombinant viruses (10,000 RT units) at 37° C. for 30 min. In the case of sensitization assays, a constant concentration of compounds was incubated with virus for 30 min at 37° C.; then, 17b or other antibodies (0-100 μg/mL) were added to the virus/compound mixture and incubated for an additional 30 min at 37° C. The mixtures were then added to the target cells and incubated for 48 h at 37° C.; after this time, the medium was removed from each well, and the cells were lysed by the addition of 30 μL passive lysis buffer (Promega) and three freeze-thaw cycles. An EG&G Berthold Microplate Luminometer LB 96V was used to measure the luciferase activity of each well after the addition of 100 μL of luciferin buffer (15 mM MgSO4, 15 mM KPO4, pH 7.8, 1 mM ATP, and 1 mM dithiothreitol) and 50 μL of 1 mM Firefly D-Luciferin Free Acid 99% (Prolume).

YU-2 = assay: Infection by single-round luciferase viruses, HIV-1 YU-2 envelope; format: cell-based; conditions: Human immunodeficiency virus 1, 48 h, read-out: YU-2 (μM)
Protocol: as §1, §2, §3, §4

[1] = Assessment of the maximum tolerated dose (MTD); conditions: mouse, in vivo, ip; intraperitoneal, CD-1 mice
Protocol: Procedure: (+)-BNM-III-170 was dissolved in DMSO to a final concentration of 10 mg/mL. This solution was then used for intraperitoneal administration to CD-1 mice at various doses to examine for visible signs of intolerance after compound dosing. This included an assessment of hyper- or hypoactivity, altered locomotion, ataxia, sedation, or other visible abnormalities. The compound was ultimately tested at three doses (30 mg/kg, 10 mg/kg and 3 mg/kg), as outlined below, with the amounts injected per mouse and the behavioral observations indicated for each dosing group.

[2] = Evaluation of blood-brain barrier: brain and plasma concentrations; format: in vivo; conditions: 1 hr post IP at 5 mg/kg, female CD1 mice
Protocol: Compound BNM-III-170 was administered to mice under a protocol approved by the University of Pennsylvania Institutional Animal Care and Use Committee. Specifically, BNM-III-170, dissolved in DMSO, was administered IP at 5 mg/kg to 3 month old female CD1 mice. Mice were euthanized 1 hour post dose. Brain and plasma were then collected.
Hemi-brains were homogenized with 10 mM ammonium acetate pH 4.0 (50% w/v) using a sonic dismembrator. Brain homogenate and plasma were extracted with 4 parts (v/v) acetonitrile, vortexed, and centrifuged at 15,000 g for 10 minutes. Supernatants were analyzed by LC-MS/MS using a Waters Acuity UPLC-TQMS. Samples (5 μL) were separated using a BEH C18 column (1.7 μm, 2.1×50 mm) at 0.6 mL/min from 5 to 95% acetonitrile with 0.1% formic acid over 2 minutes. BNM-III-170 was detected in positive ion mode using selected reaction monitoring of a specific collision induced ion transition (447.3>184.1 m/z). Unknown peak areas were quantified against standard curves constructed with BNM-III-170 spiked mouse brain homogenate or plasma extracted as above to final concentrations from 1 to 1000 ng/mL.

gp120 = gp120 (Human immunodeficiency virus type 1 group M subtype B, UniProt P35961); conditions: background statement; cited from earlier work

Row | SMILES | Kd (monomeric YU-2 gp120) [µM] | ΔG (monomeric YU-2 gp120) [kcal/mol] | ΔH (monomeric YU-2 gp120) [kcal/mol] | −TΔS (kcal/mol) (monomeric YU-2 gp120) | IC50 (AD8) [µM] | IC50 (JR-FL) [µM] | IC50 (A-MLV) [µM] | IC50 (YU-2) [µM] | MTD [1] [mg/kg] | B/P ([2]; individual mice 1-3) | Brain ([2]; individual mice 1-3) | Plasma ([2]; individual mice 1-3) | Kp at 1 h ([2]; female, CD1, mouse, brain, ip, 5 mg/kg, AVG of 3 mice, read-out: B/P) | concentration at 1 h ([2]; female, CD1, mouse, brain, ip, 5 mg/kg, AVG of 3 mice, read-out: Brain) [ng/g] | concentration at 1 h ([2]; female, CD1, mouse, plasma, ip, 5 mg/kg, AVG of 3 mice, read-out: Plasma) [ng/mL] | favorable enthalpy change (gp120) [kcal/mol] | unfavorable entropy change, −TΔS, to Gibbs energy (gp120) [kcal/mol]
1 | CNCc1ccc2c(c1)C[C@H](CNC(=N)N)[C@H]2NC(=O)C(=O)Nc1ccc(Cl)c(F)c1 [(+)-BNM-III-170] | 0.047 | -10.0 | -20.7 | +10.7 kcal/mol | 6.4 ± 1 | 14.2 ± 4.5 | > 100 | 1.5 ± 0.8 | 3 to 9 | 0.51 and 0.14 and 0.45 | 268 ng/g and 131 ng/g and 122 ng/g | 522 ng/mL and 910 ng/mL and 270 ng/mL | 0.37 | 174 | 567 |  | 
2 | CN(Cc1ccccc1)Cc1ccc2c(c1)C[C@H](CNC(=N)N)[C@H]2NC(=O)C(=O)Nc1ccc(Cl)c(F)c1 [(+)-BNM-IV-125] |  |  |  |  |  | 14 ± 2 | > 100 |  |  |  |  |  |  |  |  |  | 
3 | CN(Cc1ccc2c(c1)C[C@H](CNC(=N)N)[C@H]2NC(=O)C(=O)Nc1ccc(Cl)c(F)c1)C(=N)N [(+)-BNM-IV-147] | 0.095 | -9.6 | -15.4 | +5.8 kcal/mol | 3.3 ± 0.2 | 6.2 ± 0.5 | > 100 | 0.8 ± 0.02 |  |  |  |  |  |  |  |  | 
4 | N=C(N)NC[C@H]1Cc2ccccc2[C@@H]1NC(=O)C(=O)Nc1ccc(Cl)c(F)c1 [(+)-DMJ-II-121] |  | -9.5 | -17.9 | +8.4 kcal/mol | 8.5 ± 2.1 | 66.8 ± 9.5 | 94.3 ± 5.7 | 3.8 ± 1.3 |  |  |  |  |  |  |  |  | 
5 | CNCc1ccc2c(c1)[C@H](NC(=O)C(=O)Nc1ccc(Cl)c(F)c1)[C@@H](CNC(=N)N)C2 [(+)-JP-III-048] | 0.024 | -10.4 | -28.2 | +17.8 kcal/mol | 6.7 ± 0.6 | 37.3 ± 13.8 | > 100 | 2.1 ± 0.9 |  |  |  |  |  |  |  |  | 
6 | CN(Cc1ccc2c(c1)[C@H](NC(=O)C(=O)Nc1ccc(Cl)c(F)c1)[C@@H](CNC(=N)N)C2)C(=N)N [(−)-BNM-IV-197] | 0.095 | -9.6 | -14.2 | +4.6 kcal/mol | 1.3 ± 0.2 | 19.5 ± 10.1 | 83.7 ± 16.4 | 1.2 ± 0.3 |  |  |  |  |  |  |  |  | 
7 | CC1(C)CC(NC(=O)C(=O)Nc2ccc(Cl)cc2)CC(C)(C)N1 [NBD-556] |  |  |  |  |  |  |  |  |  |  |  |  |  |  |  | -24.5 | 17.1
